The record followed here is US20260232642A1, “RNA-BINDING MOLECULES WITH A SMALL CORE SCAFFOLD (R-SCORE) AND USES THEREOF” (Max-Planck-Gesellschaft zur Förderung der Wissenschaften …, priority 2022, published 2026).

As usually defined, the IC50 is the concentration at which inhibition is half-maximal.

“Also recorded” adds a separate entry of the source. Read-outs that look alike come from different tables or passages of the source.

The test system of experiment [1] is precursor microRNA-17 hairpin (pre-miR-17 hp). As to the kind of experiment: Differential scanning fluorimetry (DSF), pre-miR-17 hairpin. In kind it is binding. The settings on record: 60 uM compound, 1 μM hairpin in PBS, Tm of compound minus Tm of DMSO control. The procedure: (§1) To measure the binding between compounds and precursor microRNA-21 hairpin (pre-miR-21 hp) or precursor microRNA-17 hairpin (pre-miR-17 hp), DSF was performed as previously described with modification (ACS Chem. Biol. 2017, 12, 2, 435-443). Precursor microRNA hairpin was dissolved in PBS and annealed by briefly heating to 95° C. for 3 min and slowly cooling to rt. Assay was performed in duplicates using white qPCR 8-strips (VWR) with a total volume of 10 μL in PBS. The total reaction consisted of 1 μM precursor microRNA hairpin, 1% test compound (DMSO dilution) and 2×SYBR GreenII (Thermo Fisher Scientific). Compounds were incubated with precursor microRNA hairpin at for 10 min at rt, then SYBR GreenII was added to each well, mixed and incubated 10 min at rt. The strips were spined and loaded to the RT-PCR detection system (BIO-RAD CFX Connect), the fluorescence intensity was obtained every 1° C. for 30 s in the range of 20° C. to 80° C.
(§2) The melting temperature (Tm) was determined by the maximum of the negative of the first derivative of the fluorescence vs temperature melting curves. The ΔTm was calculated by the Tm value of compound subtract the Tm value of the DMSO control.
Background: In DSF a fluorescence change marks the thermal transition of the protein.

In experiment [2] the test system is precursor microRNA-21 hairpin (pre-miR-21 hp). Put plainly: Differential scanning fluorimetry (DSF), pre-miR-21 hairpin. In kind it is binding. The settings on record: 60 uM compound, 1 μM hairpin in PBS, Tm of compound minus Tm of DMSO control. The procedure: as §1, §2
The next experiment deals with Ramos cells. Put plainly: MTT assay, Ramos. In kind it is cell-based, human. The conditions noted are these: 72 h, Burkitt lymphoma cell line, read-out: Cell lines IC50 [μM] Ramos. The procedure: (§3) MAD-MB-231, MCF-7 and JAR cells were cultured in Dulbecco's modified Eagle's (DMEM) medium supplemented with 10% Fetal Bovine Serum (FBS), 100 u/mL penicillin-streptomycin. Jurkat, Molt-4 and Ramos cells were cultured in Roswell Park Memorial Institute (RPMI) 1640 medium with 10% Fetal Bovine Serum (FBS), 100 u/mL penicillin-streptomycin. All cell lines grown in an incubator with humidified 5% CO2 at 37° C.
(§4) Jurkat, Molt-4 and Ramos cells were collected and seeded into 96-well plates at a density of 8000-10000 per well and treated with compounds. MCF-7, MDA-MB-231 and JAR cells were collected and seeded into 96-well plates at a density of 2000-3000 per well and cultured overnight to adherent before treat with compounds. After exposed to increasing concentrations of compounds for 72 h, the cells in each well were mixed with 20 μL of 5 mg/ml MTT (3-(4,5-dimethylthiazol-2-yl)-2,5-diphenyltetrazolium bromide) for 2 h, then add 50 μL of 20% SDS/0.01 M HCl incubated overnight, and detected the absorbance at a wavelength of 570 nm.
(§5) Inhibition rate was calculated using the equation: […]
(§6) The IC50 values were calculated by using GraphPad Prism 9 software fitting to a dose-response inhibition equation.
(In general: Tetrazolium dyes change colour on reduction, which living cells bring about.)

The subject of the next experiment is Molt-4 cells. Put plainly: MTT assay, Molt-4. In kind it is cell-based, human. The conditions noted are these: acute leukemia cell line, read-out: Cell lines IC50 [μM] Molt-4. The procedure:
as §3, §4, §5, §6

Another experiment relates to Jurkat cells. Put plainly: MTT assay, Jurkat. In kind it is cell-based, human. The conditions noted are these: 72 h, acute leukemia cell line, read-out: Cell lines IC50 [μM] Jurkat. The procedure:
as §3, §4, §5, §6

The subject of the next experiment is MCF-7 cells. Put plainly: MTT assay, MCF-7. In kind it is cell-based, human. The settings on record: breast cancer cell line, read-out: Cell lines IC50 [μM] MCF-7. The method, then: as §3, §4, §5, §6
Experiment [3] relates to MDA-MB-231 cells. As to the kind of experiment: MTT assay, MDA-MB-231. In kind it is cell-based, human. The settings on record: breast cancer cell line, read-out: Cell lines IC50 [μM] MDA-MB-231. The procedure:
as §3, §4, §5, §6

The subject of the next experiment is JAR cells. Put plainly: MTT assay, JAR. In kind it is cell-based, human. The settings on record: 72 h, choriocarcinoma cell line, read-out: Cell lines IC50 [μM] JAR. The method, then: as §3, §4, §5, §6
In experiment [4] the test system is MDA-MB-231 cells. Put plainly: Colony formation assay. In kind it is cell-based, human. The conditions noted are these: for antiproliferation activity against MDA-MB-231 cell line: 6 days, crystal violet, vs DMSO; for antiproliferation activity compared to other selected compounds: MDA-MB-231, ranking among A10, A11, B2, B5, B8, B9; for inhibition of MDA-MB-231 cell proliferation at 10 μM: concentration of 10 μM. The procedure: as §3
MDA-MB-231 cells were collected and seeded into 24-well plates with the density of 1000 cells per well and cultured overnight. The medium was exchanged and supplemented with different compounds and concentrations every three days. 6 days later, cells were washed with PBS and fixed by 4% paraformaldehyde solution. After 15 min fix, the paraformaldehyde solution was washed with PBS and was then stained with 0.1% (w/v) crystal violet. After 15 min, the cells were washed and photographed.

In the case of `C=CCN1C(C#N)C(c2ccc(-c3ccc(C(F)(F)F)cc3)cc2)C1Cn1cc(-c2ccccn2)nn1` (stereo not shown) [Compound A10, 1-allyl-4-((4-(pyridin-2-yl)-1H-1,2,3-triazol-1-yl)methyl)-3-(4′-(trifluoromethyl)-[1,1′-biphenyl]-4-yl) azetidine-2-carbonitrile], the “ΔTm (pre-miR-17 hp) @60 uM [° C.]” value in [1] stood at 0 °C. In addition, the “ΔTm (pre-miR-21 hp) @60 uM [° C.]” value in [2] is 0 °C. For the same molecule, the IC50 is 8.87 µM in the experiment on Ramos cells (Homo sapiens, Ramos); 1.6 µM in the experiment with Molt-4 cells (Homo sapiens, MOLT-4, 72 h); 7.51 µM with Jurkat cells (Homo sapiens, Jurkat); over 20 µM with MCF-7 cells (Homo sapiens, MCF7, 72 h); over 20 µM with MDA-MB-231 cells [3] (Homo sapiens, MDA-MB-231, 72 h); over 20 µM in the experiment on JAR cells (Homo sapiens). In addition, in the experiment on MDA-MB-231 cells [4], the “antiproliferation activity against MDA-MB-231 cell line” value was “can inhibit MDA-MB-231 cells proliferation; also recorded: exhibited antiproliferation activity against MDA-MB-231 cell line in a dose-dependent manner”.
On to `CNc1nc(N2CC(c3ccc(-c4c(C)noc4C)cc3)C2C#N)nc2ccccc12` (stereo not shown) [Compound B2, 3-(4-(3,5-dimethylisoxazol-4-yl)phenyl)-1-(4-(methylamino)quinazolin-2-yl) azetidine-2-carbonitrile], for which the figures for the IC50 in the experiment with Ramos cells, in the experiment with Molt-4 cells (72 h) and with Jurkat cells were 3.03 µM, 4.67 µM and 4.49 µM, respectively. The “antiproliferation activity against MDA-MB-231 cell line” value in the experiment on MDA-MB-231 cells [4] is on record as “can inhibit MDA-MB-231 cells proliferation; also recorded: exhibited antiproliferation activity against MDA-MB-231 cell line in a dose-dependent manner”. Besides, the “antiproliferation activity compared to other selected compounds” value in the experiment with MDA-MB-231 cells [4] was “better antiproliferation ability; also recorded: most potent antiproliferation activity”. Further, in the experiment with MDA-MB-231 cells [4], the “inhibition of MDA-MB-231 cell proliferation at 10 μM” value is reported as “fully inhibited”.
As for `CNc1nc(N2CC(c3ccc(-c4ccc(C(F)(F)F)cc4)cc3)C2C#N)nc2ccccc12` (stereo not shown) [Compound B5, 1-(4-(methylamino)quinazolin-2-yl)-3-(4′-(trifluoromethyl)-[1,1′-biphenyl]-4-yl) azetidine-2-carbonitrile], the “ΔTm (pre-miR-17 hp) @60 uM [° C.]” value in [1] worked out at 0 °C. For the same molecule, the “ΔTm (pre-miR-21 hp) @60 uM [° C.]” value in experiment [2] amounted to 0 °C. Also, the IC50 came to 2.8 µM in the experiment with Ramos cells (Homo sapiens, Ramos); 8.42 µM in the experiment with Molt-4 cells (Homo sapiens, MOLT-4, 72 h); 5.9 µM in the experiment with Jurkat cells (Homo sapiens, Jurkat); 5.61 µM in the experiment with MCF-7 cells (Homo sapiens, MCF7, 72 h); 6.95 µM in the experiment on MDA-MB-231 cells [3] (Homo sapiens, MDA-MB-231, 72 h); 1.44 µM in the experiment with JAR cells (Homo sapiens). In the experiment on MDA-MB-231 cells [4], the “antiproliferation activity against MDA-MB-231 cell line” value is “can inhibit MDA-MB-231 cells proliferation; also recorded: exhibited antiproliferation activity against MDA-MB-231 cell line in a dose-dependent manner”. In addition, the “antiproliferation activity compared to other selected compounds” value in the experiment on MDA-MB-231 cells [4] is given as “most potent antiproliferation activity”. Besides, in the experiment on MDA-MB-231 cells [4], the “inhibition of MDA-MB-231 cell proliferation at 10 μM” value is recorded as “fully inhibited”.
As to `CNc1nc(N2CC(c3ccc(-c4ccc5nc[nH]c5c4)cc3)C2C#N)nc2ccccc12` (stereo not shown) [Compound B9, 3-(4-(1H-benzo[d]imidazol-6-yl)phenyl)-1-(4-(methylamino)quinazolin-2-yl) azetidine-2-carbonitrile], the “ΔTm (pre-miR-17 hp) @60 uM [° C.]” value in experiment [1] is −1 °C. In experiment [2], the “ΔTm (pre-miR-21 hp) @60 uM [° C.]” value is −1 °C. The IC50 in the experiment on Ramos cells amounted to 5.54 µM; in the experiment with Molt-4 cells (72 h) it was 4.14 µM; in the experiment with Jurkat cells, 3.17 µM; in the experiment with MCF-7 cells (72 h), 1.78 µM; with MDA-MB-231 cells [3] (72 h) it was 4.12 µM; in the experiment on JAR cells, 1.82 µM. Moreover, in the experiment with MDA-MB-231 cells [4], the “antiproliferation activity against MDA-MB-231 cell line” value is reported as “can inhibit MDA-MB-231 cells proliferation; also recorded: exhibited antiproliferation activity against MDA-MB-231 cell line in a dose-dependent manner”.
Take `CNc1nc(N2CC(c3ccc(-c4ccc5nc[nH]c5c4)cc3)C2C#N)nc2ccccc12` (stereo not shown) [Compound B10, 3-(4-(1H-benzo[d]imidazol-6-yl)phenyl)-1-(4-(methylamino)quinazolin-2-yl) azetidine-2-carbonitrile]: the “ΔTm (pre-miR-17 hp) @60 uM [° C.]” value in experiment [1] was determined as 0 °C. In addition, the “ΔTm (pre-miR-21 hp) @60 uM [° C.]” value in experiment [2] was determined as 0 °C. Also, the IC50 with Ramos cells (Homo sapiens, Ramos) amounted to 8.27 µM; in the experiment with Molt-4 cells (72 h) it was 12.1 µM; in the experiment on Jurkat cells, 11.2 µM; in the experiment with MCF-7 cells (72 h) it was 8.24 µM; in the experiment with MDA-MB-231 cells [3] (72 h) it was 10.8 µM; with JAR cells it was 4.78 µM.
